Results on 27 molecules are retold here after patent US20240076285A1, “COMPOUNDS AND COMPOSITIONS FOR TREATING CONDITIONS ASSOCIATED WITH STING ACTIVITY” (IFM Due, Inc., priority 2020, published 2024).

In the assay the target is T1, hSTING (Homo sapiens, UniProt Q86WV6, G230A/H232R/R293Q/R71H).
T1 construct: host or cells: THP1-Dual KO-IFNAR2 cells
As to the kind of experiment: STING reporter assay in THP1-Dual KO-IFNAR2 cells (2'3'cGAMP stimulation, luciferase reporter). Type of assay: cell-based. The settings on record: 15 μM 2'3'cGAMP, 24 h, class symbols. How it is done: STING pathway activation by the compounds described herein was measured using THP1-Dual™ cells (KO-IFNAR2).
THP1-Dual™ KO-IFNAR2 Cells (obtained from invivogen) were maintained in RPMI, 10% FCS, 5 ml P/S, 2 mM L-glut, 10 mM Hepes, and 1 mM sodium pyruvate. Compounds were spotted in empty 384 well tissue culture plates (Greiner 781182) by Echo for a final concentration of 0.0017-100 μM. Cells were plated into the TC plates at 40 μL per well, 2×10E6 cells/mL. For activation with STING ligand, 2′3′cGAMP (MW 718.38, obtained from Invivogen), was prepared in Optimem media.
The following solutions were prepared for each 1×384 plate: • Solution A: 2 mL Optimem with one of the following stimuli: • 60 μL of 10 mM 2′3′cGAMP→150 μM stock • Solution B: 2 mL Optimem with 60 μL Lipofectamine 2000→Incubate 5 min at RT
2 mL of solution A and 2 ml Solution B was mixed and incubated for 20 min at room temperature (RT). 20 μL of transfection solution (A+B) was added on top of the plated cells, with a final 2′3′cGAMP concentration of 15 μM. The plates were then centrifuged immediately at 340 g for 1 minute, after which they were incubated at 37° C., 5% CO2, >98% humidity for 24 h. Luciferase reporter activity was then measured. EC50 values were calculated by using standard methods known in the art.
Luciferase reporter assay: 10 μL of supernatant from the assay was transferred to white 384-plate with flat bottom and squared wells. One pouch of QUANTI-Luc™ Plus was dissolved in 25 mL of water. 100 μL of QLC Stabilizer per 25 mL of QUANTI-Luc™ Plus solution was added. 50 μL of QUANTI-Luc™ Plus/QLC solution per well was then added. Luminescence was measured on a Platereader (e.g., Spectramax I3X (Molecular Devices GF3637001)).
Luciferase reporter activity was then measured. EC50 values were calculated by using standard methods known in the art.

T1 sequence (Q86WV6 whole entry R71H/G230A/H232R/R293Q): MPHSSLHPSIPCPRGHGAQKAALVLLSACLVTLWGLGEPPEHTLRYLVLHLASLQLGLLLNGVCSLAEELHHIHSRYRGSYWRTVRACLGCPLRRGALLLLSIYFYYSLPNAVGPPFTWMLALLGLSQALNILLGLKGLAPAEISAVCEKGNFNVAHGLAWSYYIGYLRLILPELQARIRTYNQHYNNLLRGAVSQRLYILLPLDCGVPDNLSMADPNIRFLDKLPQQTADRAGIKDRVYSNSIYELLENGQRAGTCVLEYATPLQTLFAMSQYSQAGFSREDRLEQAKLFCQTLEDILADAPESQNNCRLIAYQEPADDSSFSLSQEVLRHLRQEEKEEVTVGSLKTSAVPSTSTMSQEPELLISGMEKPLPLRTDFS

The molecule `CC1(C)CCN(c2cc(C#N)nc(Nc3cc(Cl)c4cc[nH]c4c3)c2)CC1` [Compound 160, 6-[(4-chloro-1H-indol-6-yl)amino]-4-(4,4-dimethylpiperidin-1-yl)pyridine-2-carbonitrile] gave an EC50 of 200 to 1000 nM.

Turning to `N#Cc1cc(Nc2ccc3c(c2)C(=O)NC3)cc(Nc2ccc3cc[nH]c3c2)n1` [Compound 123, 6-[(1H-indol-6-yl)amino]-4-[(3-oxo-2,3-dihydro-1H-isoindol-5-yl)amino]pyridine-2-carbonitrile], the EC50 lay within 5000 to 100000 nM.

Molecule `N#Cc1cc(N2CCC(C(F)(F)F)CC2)cc(Nc2cc(Cl)c3cc[nH]c3c2)n1` [Compound 147, 6-[(4-chloro-1H-indol-6-yl)amino]-4-[4-(trifluoromethyl)piperidin-1-yl]pyridine-2-carbonitrile] yielded an EC50 of 200 to 1000 nM.

Turning to `N#Cc1cc(Nc2cc(Cl)cc(Cl)c2)cc(Nc2ccc3cc[nH]c3c2)n1` [Compound 136, 4-[(3,5-dichlorophenyl)amino]-6-[(1H-indol-6-yl)amino]pyridine-2-carbonitrile], the EC50 is 200 to 1000 nM.

For the molecule `N#Cc1cc(N2CCC(C(F)(F)F)CC2)cc(Nc2ccc3cc[nH]c3c2)n1` [Compound 118, 6-[(1H-indol-6-yl)amino]-4-[4-(trifluoromethyl)piperidin-1-yl]pyridine-2-carbonitrile], the EC50 was in the range of 1000 to 5000 nM.

In the case of `N#Cc1cc(Nc2ccc3c(c2)OC(F)(F)O3)cc(Nc2cc(Cl)c3cc[nH]c3c2)n1` [Compound 177, 6-[(4-chloro-1H-indol-6-yl)amino]-4-[(2,2-difluoro-2H-1,3-benzodioxol-5-yl)amino]pyridine-2-carbonitrile], the concentration giving a half-maximal response (EC50) lay in the range of 40 to 200 nM.

The molecule `N#Cc1cc(Nc2cc(F)cc(F)c2)cc(Nc2ccc3cc[nH]c3c2)n1` [Compound 137, 4-[(3,5-difluorophenyl)amino]-6-[(1H-indol-6-yl)amino]pyridine-2-carbonitrile] returned an EC50 of 200 to 1000 nM.

`N#Cc1cc(Nc2ccc3c(c2)CCC3)cc(Nc2cc(Cl)c3cc[nH]c3c2)n1` [Compound 188, 6-[(4-chloro-1H-indol-6-yl)amino]-4-[(2,3-dihydro-1H-inden-5-yl)amino]pyridine-2-carbonitrile] returned an EC50 of 40 to 200 nM.

`N#Cc1cc(Nc2cncc(C(F)(F)F)c2)cc(Nc2cc(Cl)c3cc[nH]c3c2)n1` [Compound 187, 6-[(4-chloro-1H-indol-6-yl)amino]-4-{[5-(trifluoromethyl)pyridin-3-yl]amino}pyridine-2-carbonitrile] returned an EC50 of 200 to 1000 nM.

In turn, `N#Cc1cc(Nc2ccc3cc[nH]c3c2)cc(Nc2ccc3cc[nH]c3c2)n1` [Compound 145] registered an EC50 of 200 to 1000 nM.

`N#Cc1cc(Nc2cc(F)cc(C(F)(F)F)c2)cc(Nc2cc(Cl)c3cc[nH]c3c2)n1` [Compound 186, 6-[(4-chloro-1H-indol-6-yl)amino]-4-{[3-fluoro-5-(trifluoromethyl)phenyl]amino}pyridine-2-carbonitrile] yielded an EC50 of 200 to 1000 nM.

In turn, `Cc1ccc(Nc2cc(C#N)nc(Nc3cc(Cl)c4cc[nH]c4c3)c2)cn1` [Compound 184, 6-[(4-chloro-1H-indol-6-yl)amino]-4-[(6-methylpyridin-3-yl)amino]pyridine-2-carbonitrile] came in with an EC50 of 200 to 1000 nM.

`N#Cc1cc(Nc2ccc(Cl)c(Cl)c2)cc(Nc2ccc3cc[nH]c3c2)n1` [Compound 138, 4-[(3,4-dichlorophenyl)amino]-6-[(1H-indol-6-yl)amino]pyridine-2-carbonitrile] registered an EC50 of 200 to 1000 nM.

Consider `CC1(C)C(=O)Nc2cc(Nc3cc(C#N)nc(Nc4cc(Cl)c5cc[nH]c5c4)c3)ccc21` [Compound 178, 6-[(4-chloro-1H-indol-6-yl)amino]-4-[(3,3-dimethyl-2-oxo-2,3-dihydro-1H-indol-6-yl)amino]pyridine-2-carbonitrile], for which the EC50 was in the range of 200 to 1000 nM.

The molecule `COc1ccc(Nc2cc(C#N)nc(Nc3ccc4cc[nH]c4c3)c2)cn1` [Compound 131, 6-[(1H-indol-6-yl)amino]-4-[(6-methoxypyridin-3-yl)amino]pyridine-2-carbonitrile] registered an EC50 of 1000 to 5000 nM.

As to `N#Cc1cc(Nc2ccc(F)c(F)c2)cc(Nc2ccc3cc[nH]c3c2)n1` [Compound 116, 4-[(3,4-difluorophenyl)amino]-6-[(1H-indol-6-yl)amino]pyridine-2-carbonitrile], the EC50 lay within 200 to 1000 nM.

On to `COc1cc(Nc2cc(C#N)nc(Nc3cc(Cl)c4cc[nH]c4c3)c2)cnc1Cl` [Compound 150, 6-[(4-chloro-1H-indol-6-yl)amino]-4-[(6-chloro-5-methoxypyridin-3-yl)amino]pyridine-2-carbonitrile], for which the EC50 lay in the range of 200 to 1000 nM.

On to `Cc1nn(C)c2ccc(Nc3cc(C#N)nc(Nc4ccc5cc[nH]c5c4)c3)cc12` [Compound 108, 4-[(1,3-dimethyl-1H-indazol-5-yl)amino]-6-[(1H-indol-6-yl)amino]pyridine-2-carbonitrile], for which the EC50 lay in the range of 1000 to 5000 nM.

Consider `N#Cc1cc(Nc2cc(F)cc(C(F)(F)F)c2)cc(Nc2ccc3cc[nH]c3c2)n1` [Compound 110, 4-{[3-fluoro-5-(trifluoromethyl)phenyl]amino} 6-[(1H-indol-6-yl)amino]pyridine-2-carbonitrile], for which the EC50 fell in the range of 200 to 1000 nM.

The molecule `CC(C)(C)c1cncc(Nc2cc(C#N)nc(Nc3cc(Cl)c4cc[nH]c4c3)c2)c1` [Compound 163, 4-[(5-tert-butylpyridin-3-yl)amino]-6-[(4-chloro-1H-indol-6-yl)amino]pyridine-2-carbonitrile] yielded an EC50 of 200 to 1000 nM.

As for `N#Cc1cc(Nc2ccc3c(c2)CC(=O)N3)cc(Nc2ccc3cc[nH]c3c2)n1` [Compound 101, 6-[(1H-indol-6-yl)amino]-4-[(2-oxo-2,3-dihydro-1H-indol-5-yl)amino]pyridine-2-carbonitrile], the EC50 was 5000 to 100000 nM.

Molecule `N#Cc1cc(Nc2cc(Cl)cc(Cl)c2)cc(Nc2cc(Cl)c3cc[nH]c3c2)n1` [Compound 164, 6-[(4-chloro-1H-indol-6-yl)amino]-4-[(3,5-dichlorophenyl)amino]pyridine-2-carbonitrile] showed a half-maximal effective concentration (EC50) of 200 to 1000 nM.

For `N#Cc1cc(N2CCC(Oc3ccccc3)CC2)cc(Nc2ccc3cc[nH]c3c2)n1` [Compound 119, 6-[(1H-indol-6-yl)amino]-4-(4-phenoxypiperidin-1-yl)pyridine-2-carbonitrile], the concentration giving a half-maximal response (EC50) lay within 200 to 1000 nM.

For `COc1cc(Cl)cc(Nc2cc(C#N)nc(Nc3cc(Cl)c4cc[nH]c4c3)c2)c1` [Compound 185, 6-[(4-chloro-1H-indol-6-yl)amino]-4-[(3-chloro-5-methoxyphenyl)amino]pyridine-2-carbonitrile], the EC50 lay in the range of 40 to 200 nM.

The molecule `COC1CCN(c2cc(C#N)nc(Nc3cc(Cl)c4cc[nH]c4c3)c2)CC1` [Compound 156, 6-[(4-chloro-1H-indol-6-yl)amino]-4-(4-methoxypiperidin-1-yl)pyridine-2-carbonitrile] displayed an EC50 of 1000 to 5000 nM.

Molecule `N#Cc1cc(Nc2ccc(F)c(Cl)c2)cc(Nc2cc(Cl)c3cc[nH]c3c2)n1` [Compound 169, 6-[(4-chloro-1H-indol-6-yl)amino]-4-[(3-chloro-4-fluorophenyl)amino]pyridine-2-carbonitrile] yielded an EC50 of 40 to 200 nM.

Consider `N#Cc1cc(Nc2ccc(C(F)(F)F)c(Cl)c2)cc(Nc2ccc3cc[nH]c3c2)n1` [Compound 133, 4-{[3-chloro-4-(trifluoromethyl)phenyl]amino}-6-[(1H-indol-6-yl)amino]pyridine-2-carbonitrile], for which the EC50 was in the range of 200 to 1000 nM.
